Laboratory results from patent US20190364895A1, “ANTIMICROBIAL COMPOUNDS OR PRECURSORS THEREOF COMRPISING ONE OR MORE CATIONIC CENTERS AND A COATING-INCORPORATION GROUP” (Exigence Technologies Inc., priority 2016, published 2019).

System: E. coli (ATCC 25922)
Assay: Biocidal activity of coated hard-substrates, ISO 22196 methodology
Type: cell-based
Settings: 5% FBS and MH Broth
Protocol: Tables 27 to 35 summarize the biocidal activity of the coated hard-substrates as assessed using the ISO 22196 methodology. Briefly, control and chlorinated samples of the coated hard-substrates (chlorinated at 200 ppm for 10 minutes) were challenged with E. coli (ATCC 25922). Using a pipette, 200 μL of test inoculum were transferred at a concentration of 1-2×10^6 CFU/mL (in sterile DI water, 5% fetal bovine serum or 100% Mueller-Hinton broth) onto a 50 mm×50 mm plastic test surface in a sterile petri dish. The test inoculum was covered with a piece of PET (polyethylene terephthalate) film that measured 40 mm×40 mm. A slight pressure was applied to the film so that the test inoculum spread to the edges. The test inoculum was kept within the edges of the film and was capped with the lid of the petri dish. Contact times for the samples were 10, 30 and 60 minutes. Then the samples were quenched with 10 mL of sterile 0.05 M sodium thiosulfate solution to remove all oxidative chlorine in the petri dish. This quenching step was followed by repetitive washing and 1 minute of sonication. […] The plates were incubated at 37° C. for about 16 hours to about 18 hours, and viable bacterial colonies were recorded for kill kinetics analysis. The logarithm reduction was determined as follows: […]

SMILES	biocidal activity (in words)
CCCC[P+](C)(CCCC[P+](CCCCCCCCCC[N+](C)(CCCN)CCCN)(c1ccccc1)c1ccccc1)c1ccccc1.[Br-].[Br-].[Br-] (centres unmarked) [C4-P—C4-P—C10-BIS-C3-NH2]	poor biocidal activity
CC1(C)CC([N+](C)(C)CCCC[P+](CCCC[P+](CCCC[N+](C)(CCCN)CCCN)(c2ccccc2)c2ccccc2)(c2ccccc2)c2ccccc2)CC(C)(C)N1.[Br-].[Br-].[Br-].[Br-] [PIP—C4-P—C4-P—C4-BIS-C3-NH2]	had biocidal activity
